Data on three compounds can be found in ChEMBL document CHEMBL1130332, “Synthesis of (+)- and ()-2-methylarachidonyl-2-fluoroethylamide (O-689)” (Bioorg Med Chem Lett, 1997).

Where “and” joins values, the source holds several entries; their conditions need not be identical. Equal values may be shown once.

The test system of test [1] is Mus musculus. Briefly: Tested for in vivo inhibition of locomotor activity in mouse upon intravenous administration. It counts as functional.
The test system of test [2] is Mus musculus. Briefly: Tested for ring immobility in mouse upon intravenous administration. It counts as functional.
Test [3] deals with T1, Cannabinoid receptor 1 (Rattus norvegicus, UniProt P20272). As to the kind of experiment: Compound was evaluated for binding affinity to displace [3H]CP-55940 radioligand from cannabinoid receptor in rat brain P2 membrane. The class given is cell membranes.
T1 sequence (P20272 whole entry): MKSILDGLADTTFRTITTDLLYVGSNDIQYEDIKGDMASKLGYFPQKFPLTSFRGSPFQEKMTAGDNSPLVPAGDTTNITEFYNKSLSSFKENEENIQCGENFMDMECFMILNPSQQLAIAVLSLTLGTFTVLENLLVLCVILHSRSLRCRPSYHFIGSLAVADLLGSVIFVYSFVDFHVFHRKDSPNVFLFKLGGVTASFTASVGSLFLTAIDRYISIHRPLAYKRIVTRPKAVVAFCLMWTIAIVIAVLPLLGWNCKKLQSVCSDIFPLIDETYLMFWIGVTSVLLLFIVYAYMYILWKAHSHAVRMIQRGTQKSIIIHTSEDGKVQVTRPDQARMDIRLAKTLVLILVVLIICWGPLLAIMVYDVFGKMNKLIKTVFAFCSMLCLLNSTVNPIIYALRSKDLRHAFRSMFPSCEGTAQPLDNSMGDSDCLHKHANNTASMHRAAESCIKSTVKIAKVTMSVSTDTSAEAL
Test [4] has as its system Mus musculus. Briefly: Tested for hypothermia in mouse upon intravenous administration. It counts as functional.
Test [5] has as its system Mus musculus. As to the kind of experiment: Tested for in vivo […] by tail-flick method in mouse upon intravenous administration. The class given is functional.
The target of test [6] is T1, Cannabinoid receptor 1. As to the kind of experiment: Compound was evaluated for binding affinity towards cannabinoid receptor in rat brain P2 membrane. It counts as cell membranes.

As to `CCCCC/C=C\C/C=C\C/C=C\C/C=C\CCC(C)C(=O)NCCF` (single isomer, unassigned; (-)), the ED50 in test [1] was found to be 2.3 mg/kg; in test [2], 2.93 mg/kg; in test [4], 10.1 mg/kg; in test [5], 1.34 mg/kg. The Ki in test [3] stood at 15.3 nM.
In the same order, the values of `CCCCC/C=C\C/C=C\C/C=C\C/C=C\CCC(C)C(=O)NCCF` (stereo in doubt; (+)-4a) are 10.2 mg/kg, 5.27 mg/kg, 2.49 mg/kg, 2.56 mg/kg and 22.4 nM.
`CCCCC/C=C\C/C=C\C/C=C\C/C=C\CCC(C)C(=O)NCCF` (racemic): the ED50 was 1.85 mg/kg and 4.78 mg/kg in test [1]; 1.6 mg/kg in test [2]; 2.73 mg/kg in test [4]. The Ki in test [3] stood at 21.2 nM; in test [6], 5.7 nM.
